Measured values as given in patent US7521418B2, “Use of a polyene macrolide antifungal agent in combination with a glycopeptide antibacterial agent” (Theravance, Inc., priority 2003, dated 2009).

Assays:
C. albicans ATCC 24433 = experiment: Checkerboard MIC assay, FICI; type: cell-based, Candida albicans; details: combination with Compound 1; C. albicans ATCC 24433
From the text: The following assay was used to determine the minimum inhibitory concentration (MIC) and fractional inhibitory concentration index (FICI) for combinations of an antifungal agent and a glycopeptide antibacterial agent. This assay and methods for calculating FICI are well known in the art. See, for example, Eliopoulos, E. G. and R. Moellering, Jr. “Antimicrobial Combinations” in Antibiotics in Laboratory Medicine, edited by V. Lorian, 4th Ed., Williams & Wilkins, Baltimore, MD, pp. 330-396 (1996); […] et al., Antimicrobial Agents and Chemotherapy 47(4):1416-1418 (2003); or […] et al., Antimicrobial Agents and Chemotherapy 46(10):3323-3326 (2002). Procedures, protocols, supplies and equipment used in this assay follow the recommendations approved and published by the National Committee for Clinical Laboratory Standards (NCCLS), Wayne, Pa. as described in NCCLS 2003, “Reference Method for Broth Dilution Antimicrobial Susceptibility Tests for Bacteria that Grow Aerobically; Approved Standard” (NCCLS document M7-A6); NCCLS 2002, “Reference Method for Broth Dilution Antifungal Susceptibility Tests of Filamentous Fungi that Grow Aerobically; Approved Standard” (NCCLS document M38-A); and NCCLS 2002 “Reference Method for Broth Dilution Antifungal Susceptibility Tests of Yeast; Approved Standards-2nd Edition” (NCCLS document M27-A2). Using a checkerboard method, a 2-fold dilution 100× final concentration master plate was prepared using a 96-well U-shape microtiter plate and an appropriate solvent. In the “checkerboard” method, a microtiter plate is divided into “columns” in which each well in the column contains the same amount of an antifungal agent (Compound A) being diluted along the x-axis, and “rows” in which each well in the row contains the same amount of a glycopeptide antibacterial agent (Compound B) being diluted on the y-axis. Also included is a row (or column) for Compound A or B alone. The dilutions used in the checkerboard are exponential (by powers of two). The result is that each well in the microtiter plate contains a unique concentration of the two compounds being tested. […] After mixing, 100 μL of 2× drug combinations were distributed into 96-well microtiter plates. […] Compound A was not added to Column 12, so Column 12 contained only Compound B. Compound B was diluted from row A starting at 6,400 μg/mL down to row G (100 μg/mL). Wells in Row A contained a final concentration of 64 μg/mL of Compound B; Row B contained a final concentration of 32 μg/mL of Compound B; Row C contained a final concentration of 16 μg/mL of Compound B; etc. Compound B was not added to Row H, so Row H only contained Compound A. […] The MIC of the glycopeptide antibacterial agent determined from this experiment was used in FIC calculations. […] RPMI-1640 without sodium bicarbonate media (GIBCO-BRL, Carlsbad, Calif.), an enriched media formulated for mammalian cells, was used according to the NCCLS guidelines for yeast and filamentous fungi susceptibility testing. The medium was buffered with 0.165 M 3-[N-Morpholino]propanesulfonic acid (MOPS) supplemented with 20 g/L glucose and pH adjusted to 7.0 with hydrogen chloride. Sabouraud Dextrose Agar ([…] plates, and Potato Dextrose Agar (PDA) plates were purchased from Hardy Diagnostic (Santa Maria, Calif.). Yeast cultures were started from -80° C. frozen stock streaked on […] incubated at 35° C. under aerobic conditions for 24 h. The […] in the refrigerator for up to 2 weeks and used regularly as a starting culture. About 24 to 48 h before each assay was run, yeasts were streaked on SDA plates for isolated colonies. To prepare the inoculum, from one to four colonies were resuspended in 5 mL of saline, and vortexed for 15 sec. […] For most yeast and mold cultures, the optical density (OD) of the suspension was adjusted to 0.11 in saline to provide 0.4×10^6 CFU/mL. However, for Fusarium moniliforme and Pseudallescheria boydii the OD of the suspension was adjusted to OD=0.17 to provide 0.4×10^6 CFU/mL. […]

C. neoformans ATCC 56991 = experiment: Checkerboard MIC assay, FICI; type: cell-based, Cryptococcus neoformans; details: combination with Compound 1
From the text: The following assay was used to determine the minimum inhibitory concentration (MIC) and fractional inhibitory concentration index (FICI) for combinations of an antifungal agent and a glycopeptide antibacterial agent. This assay and methods for calculating FICI are well known in the art. See, for example, Eliopoulos, E. G. and R. Moellering, Jr. “Antimicrobial Combinations” in Antibiotics in Laboratory Medicine, edited by V. Lorian, 4th Ed., Williams & Wilkins, Baltimore, MD, pp. 330-396 (1996); […] et al., Antimicrobial Agents and Chemotherapy 47(4):1416-1418 (2003); or […] et al., Antimicrobial Agents and Chemotherapy 46(10):3323-3326 (2002). […] The MIC of the glycopeptide antibacterial agent determined from this experiment was used in FIC calculations. […]

Row | SMILES | FICI (C. albicans ATCC 24433) | FICI (C. neoformans ATCC 56991)
1 | C[C@@H]1[C@H](O)[C@@H](C)/C=C/C=C/C=C/C=C/C=C/C=C/C=C/[C@H](O[C@@H]2O[C@H](C)[C@@H](O)[C@H](N)[C@@H]2O)C[C@@H]2O[C@](O)(C[C@@H](O)C[C@@H](O)[C@H](O)CC[C@@H](O)C[C@@H](O)CC(=O)O[C@H]1C)C[C@H](O)[C@H]2C(=O)O [Amphotericin B] | 0.19 | 0.25
2 | C[C@@H]1[C@H](O)[C@@H](C)/C=C/C=C/CC/C=C/C=C/C=C/C=C/C(O[C@H]2O[C@H](C)[C@@H](O)[C@H](N)[C@@H]2O)CC2O[C@](O)(CC(O)C(O)CCC(O)CC(O)CC(O)CC(=O)O[C@H]1C)CC(O)C2C(=O)O (stereo partly shown) [Nystatin] | 0.31 | 0.5
